Laboratory results as given in US20080312208A1, “Pyridine Analogues” (ASTRAZENECA AB, priority 2005, published 2008).

Legend:
[1] = Moisture adsorption of crystalline form on storage at 80% RH; format: physicochemical; settings: stored at 80% RH (ambient)
Protocol: The crystalline forms may be further characterised by the presence of one or more of the additional properties listed below: • (i) for Form I • (I) when characterised by thermogravimetric analysis, a weight loss of approx. 0.8% occurs in the range from 25° C. up to 205° C., and/or • (II) when characterised by differential scanning calorimetry, at a heating rate of 10° C. per minute in a closed cup with a pinhole under flowing nitrogen, a melting temperature (Tm) having an onset at about 194° C. and/or an associated endotherm of melting of about 96 J/g; and/or • (III) when stored at 80% RH (ambient) less than 0.2% moisture is adsorbed, • (i) […] • (I) when characterised by thermogravimetric analysis, a weight loss of approx. 0.2% occurs in the range from 25° C. up to 205° C., and/or • (II) when characterised by differential scanning calorimetry, at a heating rate of 10° C. per minute in a closed cup with a pinhole under flowing nitrogen, a melting temperature (Tm) having an onset at about 193° C. and/or an associated endotherm of melting of about 105 J/g.

P2Y12 receptor = target: T1, P2Y12 receptor (Homo sapiens, UniProt Q9H244); assay: Functional inhibition of 2-Me-S-ADP induced P2Y12 signalling (35S-GTPγS, cell membranes); format: biochemical; settings: membranes from P2Y12 transfected CHO-cells, EC80 concentration of agonist 2-methyl-thio-adenosine diphosphate, 30° C. for 45 min
T1 construct: expressed in transfected cells; host or cells: CHO cells (membranes)
T1 sequence (Q9H244 whole entry): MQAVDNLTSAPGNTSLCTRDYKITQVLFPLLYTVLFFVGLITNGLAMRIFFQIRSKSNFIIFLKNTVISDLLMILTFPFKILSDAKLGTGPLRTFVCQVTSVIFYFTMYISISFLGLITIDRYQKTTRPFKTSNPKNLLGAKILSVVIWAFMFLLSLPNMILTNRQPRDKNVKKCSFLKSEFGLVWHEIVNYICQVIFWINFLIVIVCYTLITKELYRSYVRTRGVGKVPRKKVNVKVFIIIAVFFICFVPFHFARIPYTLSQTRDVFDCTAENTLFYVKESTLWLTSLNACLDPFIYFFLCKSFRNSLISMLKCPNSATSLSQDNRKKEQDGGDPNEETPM
Protocol: Functional inhibition of the P2Y12 receptor can be measured by in vitro assays using cell membranes from P2Y12 transfected CHO-cells, the methodology is indicated below.
Functional inhibition of 2-Me-S-ADP induced P2Y12 signalling: 5 μg of membranes were diluted in 200 μl of 200 mM NaCl, 1 mM MgCl2, 50 mM HEPES (pH 7.4), 0.01% BSA, 30 μg/ml saponin and 10 μM GDP. To this was added an EC80 concentration of agonist (2-methyl-thio-adenosine diphosphate), the required concentration of test compound and 0.1 μCi ^35S-GTPγS. The reaction was allowed to proceed at 30° C. for 45 min. Samples were then transferred on to GF/B filters using a cell harvester and washed with wash buffer (50 mM Tris (pH 7.4), 5 mM MgCl2, 50 mM NaCl). Filters were then covered with scintillant and counted for the amount of ^35S-GTPγS retained by the filter. Maximum activity was that determined in the presence of the agonist and minimum activity in the absence of the agonist following subtraction of the value determined for nonspecific activity. The effect of compounds at various concentrations was plotted according to the equation
y=A+((B−A)/(1+((C/x)̂D)))
and IC50 estimated where A is the bottom plateau of the curve i.e. the final minimum y value B is the top of the plateau of the curve i.e. the final maximum y value C is the x value at the middle of the curve. […]

SMILES	moisture adsorbed [1]	IC50 (P2Y12 receptor) [µM]
CCOC(=O)c1cc(C#N)c(N2CCC(C(=O)NS(=O)(=O)Cc3ccccc3)CC2)nc1C [Form I, 6-(4-{[(benzylsulfonyl)amino]carbonyl}piperidin-1-yl)-5-cyano-2-methylnicotinic acid ethyl ester]	less than 0.2%	–
Cc1nc(N2CC(C(=O)NS(=O)(=O)Cc3cccc(F)c3)C2)c(C#N)cc1C(=O)OC(C)C [Example 91, Isopropyl 5-cyano-6-[3-({[(3-fluorobenzyl)sulfonyl]amino}carbonyl)azetidin-1-yl]-2-methylnicotinate]	–	0.46
CCOC(=O)c1cc(C#N)c(N2CCC(C(=O)NS(=O)(=O)Cc3ccc(C(C)C)cc3)CC2)nc1C [Example 119, Ethyl 5-cyano-6-[4-({[(4-isopropylbenzyl)sulfonyl]amino}carbonyl)piperidin-1-yl]-2-methylnicotinate]	–	0.25
